Measured values: ChEMBL document CHEMBL1201862, “PubChem BioAssay data set” (2004)
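Dose response: 5 concentrations. Exposure: 48 h. Format: 96-well plates. Endpoint: linear interpolation; highest concentration if not reached. Here, GI50 denotes the concentration required for 50% inhibition of growth.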 Activity calls are given as the source filed them. No stated cut-off is given here; in the data, active = GI50 up to about 1.1 µM and inactive = higher. Square brackets hold non-standard residues; d marks the D form. Peptide text beside a SMILES is read from it. * marks the point of attachment. ξ: configuration not given here. NMeY = CN[C@@H](Cc1ccc(O)cc1)C(=O)O; Cbz = O=C(OCc1ccccc1)*; ξA = CC(N)C(=O)O

Columns and labels:
Test in all cases: NCI tumour cell line growth inhibition, 48 h
U-251 = tested on: U-251
OVCAR-3 = tested on: OVCAR-3
A549 = tested on: A549
ACHN = tested on: ACHN
SK-MEL-28 = tested on: SK-MEL-28
UACC-257 = tested on: UACC-257
UO-31 = tested on: UO-31
MDA-MB-435 = tested on: MDA-MB-435
A498 = tested on: A498
BT-549 = tested on: BT-549
SK-MEL-2 = tested on: SK-MEL-2
MDA-N = tested on: MDA-N
MOLT-4 = tested on: MOLT-4
M14 = tested on: M14
HCT-15 = tested on: HCT-15
T47D = tested on: T47D
SNB-19 = tested on: SNB-19
IGROV-1 = tested on: IGROV-1
SF-268 = tested on: SF-268

Compound	GI50 (U-251)	GI50 (OVCAR-3)	GI50 (A549)	GI50 (ACHN)	GI50 (SK-MEL-28)	GI50 (UACC-257)	GI50 (UO-31)	GI50 (MDA-MB-435)	GI50 (A498)	GI50 (BT-549)	GI50 (SK-MEL-2)	GI50 (MDA-N)	GI50 (MOLT-4)	GI50 (M14)	GI50 (HCT-15) [µM]	GI50 (T47D)	GI50 (SNB-19)	GI50 (IGROV-1)	GI50 (SF-268)
O=C(/C=C/c1ccccc1)OCC1=C[C@@H](O)[C@@H]2C=CO[C@@H](OC3OC(CO)C(O)C(O)C3O)[C@H]12 (some centres not stated)	> 100 µM (inactive)	> 100 µM (inactive)	> 100 µM (inactive)	> 100 µM (inactive)	> 100 µM (inactive)	> 100 µM (inactive)	> 100 µM (inactive)	> 100 µM (inactive)	> 100 µM (inactive)	> 100 µM (inactive)	> 100 µM (inactive)	> 100 µM (inactive)	> 100 µM (inactive)	> 100 µM (inactive)	> 100	> 100 µM (inactive)	95.9 µM (inactive)	> 100 µM (inactive)	> 100 µM (inactive)
O=C(O)Cc1ccc(Nc2nc3cc(C(F)(F)F)ccc3nc2C(=O)O)cc1	> 100 µM (inactive)	> 100 µM (inactive)	> 100 µM (inactive)	> 100 µM (inactive)	> 100 µM (inactive)	> 100 µM (inactive)	> 100 µM (inactive)	> 100 µM (inactive)	> 100 µM (inactive)	> 100 µM (inactive)	> 100 µM (inactive)	> 100 µM (inactive)	> 100 µM (inactive)	> 100 µM (inactive)	> 100	> 100 µM (inactive)	> 100 µM (inactive)	> 100 µM (inactive)	> 100 µM (inactive)
N#CC12CNCC1CN=N2 (configuration not stated)	> 100 µM (inactive)	> 100 µM (inactive)	> 100 µM (inactive)	> 100 µM (inactive)	> 100 µM (inactive)	> 100 µM (inactive)	> 100 µM (inactive)	> 100 µM (inactive)	> 100 µM (inactive)	> 100 µM (inactive)	> 100 µM (inactive)	> 100 µM (inactive)	> 100 µM (inactive)	–	> 100	> 100 µM (inactive)	> 100 µM (inactive)	> 100 µM (inactive)	> 100 µM (inactive)
O=C1CC[C@@]2(O)[C@H]3Cc4ccc(-c5ccccc5)c5c4[C@@]2(CCN3CC2CC2)[C@H]1O5	17 µM (inactive)	18.1 µM (inactive)	20.6 µM (inactive)	20.6 µM (inactive)	42.4 µM (inactive)	16 µM (inactive)	16.1 µM (inactive)	13.2 µM (inactive)	18.1 µM (inactive)	14.3 µM (inactive)	17.9 µM (inactive)	16.4 µM (inactive)	18.6 µM (inactive)	17.6 µM (inactive)	16.8	17 µM (inactive)	25.5 µM (inactive)	27.2 µM (inactive)	14.3 µM (inactive)
COc1cc(C(c2cccc3ccccc23)N2C(=O)CCC2C(=O)O)cc(OC)c1OC (configuration not stated)	> 100 µM (inactive)	> 100 µM (inactive)	> 100 µM (inactive)	> 100 µM (inactive)	> 100 µM (inactive)	> 100 µM (inactive)	> 100 µM (inactive)	> 100 µM (inactive)	> 100 µM (inactive)	> 100 µM (inactive)	> 100 µM (inactive)	> 100 µM (inactive)	> 100 µM (inactive)	> 100 µM (inactive)	> 100	> 100 µM (inactive)	> 100 µM (inactive)	> 100 µM (inactive)	> 100 µM (inactive)
COc1ccc2c(c1O)-c1c(OC)c(OC)cc3c1[C@H](C2)[N+](C)(C)CC3	> 100 µM (inactive)	> 100 µM (inactive)	> 100 µM (inactive)	> 100 µM (inactive)	> 100 µM (inactive)	> 100 µM (inactive)	> 100 µM (inactive)	> 100 µM (inactive)	> 100 µM (inactive)	> 100 µM (inactive)	> 100 µM (inactive)	> 100 µM (inactive)	> 100 µM (inactive)	> 100 µM (inactive)	> 100	> 100 µM (inactive)	> 100 µM (inactive)	> 100 µM (inactive)	> 100 µM (inactive)
COC(=O)CNC(=O)/C=C/[C@H](O[Si](C)(C)C(C)(C)C)[C@H](/C=C/C(=O)NCC(=O)OC)O[Si](C)(C)C(C)(C)C	> 25 µM (inactive)	> 25 µM (inactive)	> 25 µM (inactive)	> 25 µM (inactive)	> 25 µM (inactive)	> 25 µM (inactive)	> 25 µM (inactive)	> 25 µM (inactive)	> 25 µM (inactive)	> 25 µM (inactive)	> 25 µM (inactive)	> 25 µM (inactive)	> 25 µM (inactive)	–	> 25	> 25 µM (inactive)	> 25 µM (inactive)	> 25 µM (inactive)	> 25 µM (inactive)
CC(C)(C)NC(=O)C12C3C4C1C1C2C3C41C(=O)NC(C)(C)C (configuration not stated)	> 100 µM (inactive)	> 100 µM (inactive)	> 100 µM (inactive)	> 100 µM (inactive)	> 100 µM (inactive)	> 100 µM (inactive)	> 100 µM (inactive)	> 100 µM (inactive)	> 100 µM (inactive)	> 100 µM (inactive)	> 100 µM (inactive)	> 100 µM (inactive)	78.3 µM (inactive)	> 100 µM (inactive)	> 100	> 100 µM (inactive)	47.8 µM (inactive)	> 100 µM (inactive)	> 100 µM (inactive)
C=C(CO)[C@H]1Oc2ccc(C(C)=O)cc2[C@@H]1O	> 100 µM (inactive)	> 100 µM (inactive)	> 100 µM (inactive)	> 100 µM (inactive)	> 100 µM (inactive)	> 100 µM (inactive)	> 100 µM (inactive)	36.8 µM (inactive)	> 100 µM (inactive)	33.2 µM (inactive)	> 100 µM (inactive)	22.2 µM (inactive)	> 100 µM (inactive)	> 100 µM (inactive)	80.9	> 100 µM (inactive)	> 100 µM (inactive)	> 100 µM (inactive)	> 100 µM (inactive)
COc1ccc(C[C@@H](C(=O)N[C@@H](C)C(N)=O)N(C)C(=O)[C@@H]2CCCN2C(=O)[C@H](CC(C)C)NC(=O)C(C)NC(=O)OCc2ccccc2)cc1 (some centres not stated) (Cbz-[ξA]LP[NMeY](Me)A-NH2)	> 100 µM (inactive)	> 100 µM (inactive)	> 100 µM (inactive)	> 100 µM (inactive)	> 100 µM (inactive)	> 10 µM (inactive)	> 100 µM (inactive)	> 100 µM (inactive)	> 100 µM (inactive)	> 100 µM (inactive)	> 100 µM (inactive)	> 100 µM (inactive)	35.5 µM (inactive)	> 100 µM (inactive)	> 100	> 100 µM (inactive)	> 100 µM (inactive)	51.8 µM (inactive)	> 100 µM (inactive)
CC1CC(=O)N(N(C)C)C(C#N)(C#N)C1(C#N)C#N (configuration not stated)	20.9 µM (inactive)	20.5 µM (inactive)	24.8 µM (inactive)	15.4 µM (inactive)	16.1 µM (inactive)	15.1 µM (inactive)	16.9 µM (inactive)	17 µM (inactive)	17.8 µM (inactive)	15.7 µM (inactive)	25.5 µM (inactive)	18.1 µM (inactive)	1.87 µM (inactive)	15.8 µM (inactive)	16.3	15.5 µM (inactive)	28.7 µM (inactive)	20.2 µM (inactive)	35.8 µM (inactive)
CC(O)c1cc2c(s1)C(=O)c1sccc1C2=O (configuration not stated)	0.125 µM (active)	0.187 µM (active)	0.155 µM (active)	0.15 µM (active)	0.047 µM (active)	0.0183 µM (active)	0.185 µM (active)	0.0203 µM (active)	0.29 µM (active)	0.0646 µM (active)	0.0415 µM (active)	0.0198 µM (active)	0.268 µM (active)	0.0185 µM (active)	0.0454	0.329 µM (active)	0.136 µM (active)	0.248 µM (active)	0.114 µM (active)
C#CC[C@@H]1C(=O)N(Cc2ccc(OC)cc2)[C@@H](C(C)C)C(=O)N1Cc1ccc(OC)cc1	39.7 µM (inactive)	51.4 µM (inactive)	36.1 µM (inactive)	45.4 µM (inactive)	84.7 µM (inactive)	29.9 µM (inactive)	33.7 µM (inactive)	36.1 µM (inactive)	36 µM (inactive)	29.4 µM (inactive)	19.9 µM (inactive)	22.9 µM (inactive)	15.1 µM (inactive)	36.5 µM (inactive)	40.5	16.4 µM (inactive)	64.4 µM (inactive)	> 100 µM (inactive)	82.2 µM (inactive)
NS(=O)(=O)c1ccc(Nc2c3ccccc3nc3c(C(=O)NCCCN(CCO)CCO)cccc23)cc1	13.9 µM (inactive)	24.3 µM (inactive)	26.7 µM (inactive)	37.2 µM (inactive)	22.4 µM (inactive)	31 µM (inactive)	> 100 µM (inactive)	19.6 µM (inactive)	47.9 µM (inactive)	20.4 µM (inactive)	20.1 µM (inactive)	19.8 µM (inactive)	4.86 µM (inactive)	24.2 µM (inactive)	> 100	15.8 µM (inactive)	15.2 µM (inactive)	19.4 µM (inactive)	21.8 µM (inactive)
NC(=O)C1CCCNC1 (configuration not stated)	> 100 µM (inactive)	> 100 µM (inactive)	> 100 µM (inactive)	> 100 µM (inactive)	> 100 µM (inactive)	–	> 100 µM (inactive)	> 100 µM (inactive)	> 100 µM (inactive)	> 100 µM (inactive)	> 100 µM (inactive)	> 100 µM (inactive)	24.3 µM (inactive)	> 100 µM (inactive)	> 100	> 100 µM (inactive)	> 100 µM (inactive)	> 100 µM (inactive)	> 100 µM (inactive)
